Holding throughout (type): cell-based, human
For data set [1], the system named is TC620 cells. Briefly: Trypan blue assay (cell death) in TC620 cells. The procedure:
At 100 nM, 200 nM, and 400 nM, the percentage of dead cells was 28%, 36%, and 62%, respectively. The percentages of Trypan blue-positive cells treated with 200 nM (8%) and 400 nM (7.5%) mismatched oligonucleotide 1132 were similar to the lipofectin control (6%). Cells were treated with lipofectin, survivin antisense oligonucleotide 904 at 100, 200, or 400 nM, or mismatched oligonucleotide 1132 at 200 nM or 400 nM concentrations. Cells were harvested 48 hours after the treatment and stained with 0.04% Trypan blue as described for FIG. 4.
To further examine whether cell death induced by treatment of TC620 cells with survivin antisense oligonucleotides occurs via a caspase-dependent mechanism, another experiment was performed to investigate the effect of a caspase inhibitor on cell death. […] TC620 cells were treated with lipofectin or 600 nM survivin antisense oligonucleotide 904, 906, or mismatch oligonucleotide 1132 alone, or co-treated with 20 μM zVAD-fmk.
Cells were harvested 48 hours after survivin antisense treatment, stained with 0.04% Trypan blue (GIBCO), and counted on a hemocytometer. The number of Trypan blue positive cells relative to the total number of cells in each field was obtained and the data were expressed as a percentage of dead cells relative to the total cell number. Individual experiments were performed in triplicate. MSN cell studies were performed three times, while studies in TC620 cells were performed once.

Data set [2] deals with TC620 cells. Description: TUNEL assay in TC620 cells. Here is the method: To confirm the results of the PARP data that survivin down-regulation induced apoptosis, a TUNEL assay was performed. The TUNEL reaction preferentially labels cleaved genomic DNA generated during apoptosis, by the addition of fluorescein dUTP at strand breaks. The TUNEL assay was performed on lipofectin, mismatch oligonucleotide 1132, and survivin antisense oligonucleotide-treated TC620 cells. The percentages of TUNEL-positive cells treated with survivin antisense oligonucleotides 904 or 906 at 400 nM concentration were 52% and 54%, respectively. At 600 nM, 63% of survivin antisense oligonucleotide 904- and 906-treated TC620 cells were TUNEL-positive. Only 4% of the cells were TUNEL-positive in the presence of lipofectin or mismatch oligonucleotide 1132.
The TUNEL assay was performed to assess apoptotic cell death in survivin antisense oligonucleotide-treated TC620 cells using the In Situ Cell Death Detection Kit, Fluorescein (Roche Molecular Biochemicals, Indianapolis, Ind.). The TUNEL reaction preferentially labels cleaved genomic DNA generated during apoptosis, by the addition of fluorescein dUTP at strand breaks. Lipofectin, mismatch oligonucleotide 1132 or survivin antisense oligonucleotide-treated TC620 cells were fixed and permeabilized as described for PI staining. Cells were washed and incubated in the TUNEL reaction mixture, prepared according to the manufacture's recommendations, for 1 h at 37° C. Omission of the terminal deoxynucleotidyl transferase in the label solution served as a negative control for the TUNEL fluorescence staining. Cells were washed twice and counterstained with the DNA specific dye DAPI (1:1000 of a 1 mg/ml stock; 15 min at room temperature). Cells were examined with an Olympus 1×70 inverted microscope. For each treatment 15 random, 40×objective fields consisting of about 1000 cells were examined in duplicate chamber slides. TUNEL-positive nuclei were expressed as a percent of the total number of cells per individual field.

For data set [3], the system named is TC620 cells. Description: Propidium iodide staining, nuclear morphology of TC620 cells. The note with it: for nuclear morphology by PI staining: 600 nM (FIG. 7); for number of cells in metaphase, with zVAD-fmk compared with oligonucleotide alone: 600 nM plus zVAD-fmk (FIG. 8B). The procedure: Propidium iodide (PI) staining was performed to investigate changes in nuclear morphology caused by treatment of TC620 cells with survivin antisense oligonucleotides. […] TC620 cells were treated with lipofectin (FIG. 7A), or 600 nM mismatch oligonucleotide 1132 (FIG. 7B), survivin antisense oligonucleotide 904 (FIGS. 7C and 7E), or 906 (FIG. 7D), and stained with PI. Quantification results for TC620 cells treated with 600 nM survivin antisense oligonucleotide 904, 906, or mismatch oligonucleotide 1132, alone or in the presence of zVAD-fmk, are shown in FIGS. 8A-B. Cells in metaphase were identified as those with chromosomes aligned on the metaphase plate.
Survivin antisense oligonucleotide-treated cells were fixed with 4% paraformaldehyde for 30 min at room temperature, washed with 1×TBS, permeabilized with 0.1% Triton X-100 for 30 min and treated with 10 μg/ml DNasc free RNase A (Sigma) for 60 min. Nuclei were stained with 200 μg /ml PI for 30 min at 4° C. and washed twice with 1×TBS. Nuclear morphology was assessed on an inverted Olympus 1×70 fluorescence microscope equipped with phase and epifluorescence optics. For each treatment about 600 nuclei were scored as normal, condensed (apoptotic), or abnormal (macronuclei, multilobed) on 15 random, 40×objective fields in duplicate. Quantification results are mean±SEM obtained from two independent experiments performed in duplicate.

Where [4] appears, read: 600 nM co-treated with 20 μM zVAD-fmk (FIG. 6B).

Entries after “also recorded” stand apart in the source; their conditions may differ. Oligonucleotides are written 5' to 3', each unit as a sugar letter and its base; * is a phosphorothioate linkage, no mark a phosphodiester; rarer units and linkages stand in square brackets, end groups in braces. Plain capitals give the bases only. d = 2'-deoxy (DNA)

For “d(TCTTGGCTCTTTCTCTGTCC) (antisense dT*dC*dT*dT*dG*dG*dC*dT*dC*dT*dT*dT*dC*dT*dC*dT*dG*dT*dC*dC) [Oligo 904, 20-mer phosphorothioate survivin antisense oligonucleotide, complementary to survivin mRNA 5248-5267]”, the “percentage of dead (Trypan blue-positive) cells” value (“percentage of dead” below) amounted to 28% in the data set on TC620 cells [1] (100 nM, 48 hours (FIG. 6A)); 36% with TC620 cells [1] (200 nM, 48 hours (FIG. 6A)); 62% with TC620 cells [1] (400 nM, 48 hours (FIG. 6A)). For the same substance, the “percentage of Trypan blue positive cells” value in the data set with TC620 cells [1] (600 nM alone (FIG. 6B)) is given as 70%; in the data set on TC620 cells [1] (setting [4]) it was 11%. Besides, the “cell death, Trypan blue positive cells” value in the data set with TC620 cells [1] (48 hours (FIG. 6A)) is “concentration-dependent increase in Trypan blue-positive (dead) cells; also recorded: dose-dependent increase in cell death”. Further, the “percentage of TUNEL-positive cells” value is given as 52% in the data set with TC620 cells [2] (400 nM) and 63% in the data set on TC620 cells [2] (600 nM). Also, in the data set on TC620 cells [3], the “nuclear morphology by PI staining” value is recorded as “apoptotic nuclei; also recorded: abnormal macronuclei that are multilobed”. Also, in the data set with TC620 cells [3], the “number of cells in metaphase, with zVAD-fmk compared with oligonucleotide alone” value (“number … compared with oligonucleotide alone” below) is “approximate two-fold increase”.
Regarding “d(GCTTCCCAGTCACATCCTGT) (antisense dG*dC*dT*dT*dC*dC*dC*dA*dG*dT*dC*dA*dC*dA*dT*dC*dC*dT*dG*dT) [Oligo 906, 20-mer phosphorothioate survivin antisense oligonucleotide, complementary to survivin mRNA 11897-11916]”, the entries for the “percentage of Trypan blue positive cells” value with TC620 cells [1] (600 nM alone (FIG. 6B)) and in the data set on TC620 cells [1] (setting [4]) were 67% and 15%, respectively. For the same substance, the “percentage of TUNEL-positive cells” value in the data set on TC620 cells [2] (400 nM) is recorded as 54%; in the data set on TC620 cells [2] (600 nM), 63%. The “nuclear morphology by PI staining” value in the data set on TC620 cells [3] is “abnormal macronuclei that are multilobed”. The “number … compared with oligonucleotide alone” value in the data set with TC620 cells [3] is on record as “approximate two-fold increase”.
With “d(GCACCTAGTCTCCCTGCACC) (DNA, all phosphorothioate, methylation of C not given here) [Oligo 1132, mismatched phosphorothioate control oligonucleotide, not complementary to survivin mRNA, reference compound]”, the “percentage of dead” value with TC620 cells [1] (200 nM, 48 hours (FIG. 6A)) was found to be 8%. In the data set on TC620 cells [1] (400 nM, 48 hours (FIG. 6A)), the “percentage of dead” value worked out at 7.5%. Moreover, in the data set on TC620 cells [2] (concentration not given), the “percentage of TUNEL-positive cells” value stood at 4%. Besides, in the data set with TC620 cells [3], the “nuclear morphology by PI staining” value is reported as “normal nuclear morphology” and the “number … compared with oligonucleotide alone” value was “did not affect the number of cells in metaphase”. In addition, in the data set with TC620 cells [3] (600 nM (FIG. 8A)), the “percentage of apoptotic cells (chromatin fragmentation, apoptotic bodies) by PI staining” value came out at 2% and the “percentage of cells with abnormal (multiple multilobed) nuclei by PI staining” value stood at 1%.

(Values after US20030125287A1, “Antisense oligonucleotides and methods to induce tumor cell death” (Hybridon, Inc., priority 2001, published 2003).)
